For 1 cell line, relative viability results are on record in the supplement of paper PMC10307832.

Common to all, as to assay: relative viability (nuclei count vs DMSO), 5 days (fraction); higher = more cells survive
Compound in experiment [1]: COC1=CC=C(C=C1)CN2C=CC3=C2C=C(C=C3)C(=O)NO + CC(C)C[C@H](NC(=O)[C@H](Cc1ccccc1)NC(=O)c1cnccn1)B(O)O [Bortezomib] (partner 0.002 µM)
In short, it runs like this:
(§1)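 Nuclei were stained with Hoechst during a one-step fixation (final 0.05% Triton X-100, 1% formaldehyde, 1 ug/ml Hoechst) carried out 5 days after dosing, then counted on 4× images. The cells, lung cancer lines in 1536-well plates, had been dosed by pin tool the day after seeding with one drug alone or a fixed anchor-drug dose plus five library-drug doses (not always all listed) in √10 steps. Relative viability is the nuclei count in treated wells divided by that in vehicle wells, and each value is the median of duplicate plates.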

Compound in experiment [2]: COC1=CC=C(C=C1)CN2C=CC3=C2C=C(C=C3)C(=O)NO + O=C(CCCCCCC(=O)Nc1ccccc1)NO [Vorinostat] (partner 1 µM)
In short, it runs like this:
as §1

Compound in experiment [3]: C[C@]1(c2nc3c(C(N)=O)cccc3[nH]2)CCCN1 [Veliparib] + COc1cccc2cc(-c3nc([C@H]4CC[C@H](C(=O)O)CC4)n4ncnc(N)c34)[nH]c12 [OSI-027] (partner 0.5 µM)
Put shortly:
as §1

Compound in experiment [4]: C[C@]1(c2nc3c(C(N)=O)cccc3[nH]2)CCCN1 [Veliparib] + Nc1ncn([C@H]2C[C@H](O)[C@@H](CO)O2)c(=O)n1 [Decitabine] (partner 2 µM)
Put shortly: as §1

SW 1573: the relative viability in experiment [1] (first compound 0.253 µM) was determined as 1.18; in experiment [1] (first compound 0.8 µM), 1.15; in experiment [1] (first compound 2.53 µM), 1.13; in experiment [1] (first compound 8 µM) it was 0.906; in experiment [2] (first compound 0.253 µM), 0.76; in experiment [2] (first compound 0.8 µM) it was 0.804. Besides, the relative viability amounted to 0.818 in experiment [2] (first compound 2.53 µM); 0.622 in experiment [2] (first compound 8 µM); 0.558 in experiment [3] (first compound 0.06325 µM); 0.597 in experiment [3] (first compound 0.2 µM); 0.521 in experiment [3] (first compound 0.6325 µM); 0.675 in experiment [3] (first compound 2 µM). Moreover, the relative viability in experiment [4] (first compound 0.02 µM) worked out at 0.29; in experiment [4] (first compound 0.06325 µM), 0.289; in experiment [4] (first compound 0.2 µM), 0.287; in experiment [4] (first compound 0.6325 µM), 0.361; in experiment [4] (first compound 2 µM) it was 0.298.
